Like-named read-outs stand apart in the source and are kept apart here.
Key:
IMR-32 cells = experiment: Cell viability / proliferation (trypan blue, viable cell count) in neuroblastoma cells; type: cell-based, human; conditions: 5 and 10 µM
Description: Moreover, we treated neuroblastoma IMR-32 cells with the remaining PROTACs and counted the resulting viable cells. We quantified the percentage of dead cells as shown in (Figure 5B,C). In addition, cell proliferation was assessed via counting of viable cells (Figure 5D,E). […] As reference, the HDAC8 inhibitor PCI-34501 was used.
Adherent cells were detached using trypsin–EDTA (ThermoFisher Scientific, Bremen, Germany) and pooled with corresponding supernatant, centrifuged, and resuspended in 1 mL of cell culture medium. Cell viability (viable cell number, % viability, % dead cells) was measured by automated trypan blue staining using the Vi-Cell XR Cell Viability Analyzer (Beckman Coulter, Krefeld, Germany).
Figure 5 (A) Neuroblastoma SK-N-BE(2)-C cells; Colony Assay, 10 days (compound treatment within first 96 h). Stained with crystal violet and quantified with ImageJ. (B,C) Trypan Blue assay for detection of dead cells. Neuroblastoma IMR-32 cells were either treated with 5 µM (B) or 10 µM (C). (D,E) Cell proliferation assessed via counting of viable cells. IMR-32 cells were either treated with 5 µM (D) or 10 µM (E) PROTACs. HDAC8i PCI-34501 served as a positive control, untreated (MEM) and solvent (DMSO) treated cells served as negative controls.

HDAC8 [1] = target: T1, HDAC8 (Homo sapiens, UniProt Q9BY41); experiment: In vitro HDAC8 activity assay (Fluor de Lys-HDAC8); type: biochemical; design: made in house; conditions: for SI (HDAC6/HDAC8): selectivity index, HDAC6 over HDAC8
T1 sequence (Q9BY41 1-377): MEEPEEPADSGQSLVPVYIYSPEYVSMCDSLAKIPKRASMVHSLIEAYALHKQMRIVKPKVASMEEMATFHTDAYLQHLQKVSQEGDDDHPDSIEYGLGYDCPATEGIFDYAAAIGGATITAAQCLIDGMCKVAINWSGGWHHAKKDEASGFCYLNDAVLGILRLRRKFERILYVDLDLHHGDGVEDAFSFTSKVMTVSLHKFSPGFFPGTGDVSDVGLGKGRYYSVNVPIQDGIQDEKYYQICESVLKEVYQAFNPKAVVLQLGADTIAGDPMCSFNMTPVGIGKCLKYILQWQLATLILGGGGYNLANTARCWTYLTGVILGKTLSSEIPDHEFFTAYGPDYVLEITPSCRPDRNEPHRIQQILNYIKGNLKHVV
Description: Recombinant hHDAC8 was produced by Romier et al. in Strasbourg. The HDAC8 activity assays were performed according to the commercial HDAC8 Fluorometric Drug Discovery Kit (Fluor de Lys(R)-HDAC8, BML-KI178) corresponding to the instructions of the manufacturer. As substrate a tetrapeptide connected to aminomethylcoumarin (AMC) H2N-Arg- His-Lys(Ac)-Lys(Ac)-AMC was synthesized as previously described. The enzyme was incubated for 90 min at 37 °C, with a substrate concentration of 50 µM and increasing concentrations of inhibitors. The stop-solution-containing inhibitor was added to stop the hHDAC8 activity, and Trypsin was added to release the AMC. The solution was incubated for 20 min at 37 °C to develop the assay.
(§1) Inhibition was measured at increasing concentration and IC50 was calculated by nonlinear regression with Origin 9.0G software.

HDAC1 = HDAC1 (Homo sapiens, UniProt Q13547); experiment: In vitro HDAC inhibitory activity assay, recombinant HDAC1 (fluorogenic substrate ZMAL); type: biochemical; design: purchased BPS Biosciences
Chain of HDAC1 (Q13547 whole entry): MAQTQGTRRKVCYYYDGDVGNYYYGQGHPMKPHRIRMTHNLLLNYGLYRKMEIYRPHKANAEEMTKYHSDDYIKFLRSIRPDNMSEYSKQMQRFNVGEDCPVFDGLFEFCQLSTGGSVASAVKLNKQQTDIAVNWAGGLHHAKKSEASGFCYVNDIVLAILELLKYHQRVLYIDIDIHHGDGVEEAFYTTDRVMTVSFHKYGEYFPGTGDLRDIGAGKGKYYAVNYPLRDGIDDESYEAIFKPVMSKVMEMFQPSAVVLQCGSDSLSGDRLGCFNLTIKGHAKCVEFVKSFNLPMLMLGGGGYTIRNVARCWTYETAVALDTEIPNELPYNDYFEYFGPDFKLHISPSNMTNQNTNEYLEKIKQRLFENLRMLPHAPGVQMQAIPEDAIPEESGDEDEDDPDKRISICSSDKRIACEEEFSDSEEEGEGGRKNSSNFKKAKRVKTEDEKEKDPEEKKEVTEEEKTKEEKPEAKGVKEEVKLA
Description: (§2) The in vitro testing on recombinant HDACs was performed as previously described. Recombinant human HDAC1 and −6 were purchased from BPS Biosciences. The enzyme inhibition was determined by using a reported homogenous fluorescence assay. […] Fluorescence intensity was measured at an excitation wavelength of 390 nm and an emission wavelength of 460 nm in a microtiter plate reader (BMG Polarstar).
as §1

HDAC6 = target: T2, HDAC6 (Homo sapiens, UniProt Q9UBN7); experiment: In vitro HDAC inhibitory activity assay, recombinant HDAC6 (fluorogenic substrate ZMAL); type: biochemical; design: purchased BPS Biosciences; conditions: Table 1, PROTACs; read-out: HDAC6 IC50
T2 sequence (Q9UBN7 1-1215): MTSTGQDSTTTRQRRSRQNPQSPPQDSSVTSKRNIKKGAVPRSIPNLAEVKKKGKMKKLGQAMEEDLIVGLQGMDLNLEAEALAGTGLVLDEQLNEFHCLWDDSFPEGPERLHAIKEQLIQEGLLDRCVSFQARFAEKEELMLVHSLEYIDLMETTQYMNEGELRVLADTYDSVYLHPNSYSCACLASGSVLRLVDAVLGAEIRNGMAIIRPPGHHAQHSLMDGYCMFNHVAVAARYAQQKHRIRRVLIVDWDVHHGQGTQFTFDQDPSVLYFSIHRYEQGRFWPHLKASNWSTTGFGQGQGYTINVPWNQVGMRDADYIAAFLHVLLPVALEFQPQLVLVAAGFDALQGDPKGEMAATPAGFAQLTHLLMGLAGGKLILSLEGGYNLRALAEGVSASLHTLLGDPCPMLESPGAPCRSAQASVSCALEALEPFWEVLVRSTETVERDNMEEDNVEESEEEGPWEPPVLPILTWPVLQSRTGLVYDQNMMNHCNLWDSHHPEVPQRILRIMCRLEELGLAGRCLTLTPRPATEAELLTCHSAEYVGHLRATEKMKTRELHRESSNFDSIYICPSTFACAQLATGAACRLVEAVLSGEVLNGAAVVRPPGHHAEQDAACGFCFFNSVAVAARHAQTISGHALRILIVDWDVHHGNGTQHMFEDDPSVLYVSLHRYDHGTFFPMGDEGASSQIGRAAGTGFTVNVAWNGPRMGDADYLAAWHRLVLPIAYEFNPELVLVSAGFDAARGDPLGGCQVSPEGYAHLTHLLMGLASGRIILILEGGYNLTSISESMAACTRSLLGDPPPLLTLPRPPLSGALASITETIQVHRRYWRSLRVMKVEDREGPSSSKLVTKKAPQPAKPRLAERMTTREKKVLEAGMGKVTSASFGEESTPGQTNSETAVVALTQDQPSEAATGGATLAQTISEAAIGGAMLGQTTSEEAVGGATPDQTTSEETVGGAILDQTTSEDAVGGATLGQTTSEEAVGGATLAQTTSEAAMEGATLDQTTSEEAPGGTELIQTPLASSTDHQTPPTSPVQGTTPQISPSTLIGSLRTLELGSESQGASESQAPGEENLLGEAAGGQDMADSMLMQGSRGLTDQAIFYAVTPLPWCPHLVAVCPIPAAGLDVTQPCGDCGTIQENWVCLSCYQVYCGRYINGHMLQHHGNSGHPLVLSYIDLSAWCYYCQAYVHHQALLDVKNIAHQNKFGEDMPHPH
Description: as §2, §1

HDAC8 [2] = target: T1, HDAC8; experiment: HDAC8 degradation in SK-N-BE(2)-C neuroblastoma cells (Western blot); type: cell-based; design: endogenous in cells; host or cells: SK-N-BE(2)-C; conditions: SK-N-BE(2)-C cells, up to 10 µM, Western blot
Description: Whole cell lysates from treated SK-N-BE(2)-C neuroblastoma cells were taken and the protein levels for HDAC8 and the acetylation of its substrate SMC3 were determined (Figure 6). As a control for HDAC6, we also assessed acetylation levels of α-tubulin. […] Western blot analysis was performed as described previously (Kolbinger et al.).
(§3) Figure 6 (A) SK-N-BE(2)-C neuroblastoma cells were treated for indicated time points with 10 µM of PROTACs. Degradation of HDAC8 and acetylation of HDAC8 target was analyzed via Western blot. (B) SK-N-BE(2)-C neuroblastoma cells were treated for 6 h with indicated concentrations of HyT_1p, CRBN_1b and HyT_1m. Acetylation of HDAC8 target SMC3 and HDAC6 target tubulin, as well as total HDAC8 levels, were assessed by Western blot. Quantified ac-SMC3 or ac-tubulin expression, respectively, was normalized to the respective tubulin loading control and to the solvent control (DMSO). This quantification is reflected by the numbers below each blot. […] Total HDAC6, total HDAC1, total HDAC8, and acetyl-histone H4 expression levels, were assessed by Western blot. Total GAPDH protein levels served as a loading control (LC). * unspecific bands obtained through reprobing of the membrane.

HDAC8 [3] = target: T1, HDAC8; design: made in house; method as in PMID 29190092, PMID 26937828; conditions: Table 2, previously published benzhydroxamate inhibitors; read-out: HDAC8 IC50; cited from earlier work
acetylated SMC3 = experiment: Acetylation of HDAC8 substrate SMC3 in SK-N-BE(2)-C cells (Western blot); type: cell-based, human; conditions: 10 µM
Description: To test the degradation of HDAC8 with the developed PROTACs, we selected the most promising compounds obtained from the cellular neuroblastoma testing; namely CRBN_1b, CRBN_1d, CRBN_1e, HyT_1m, and HyT_1p. Whole cell lysates from treated SK-N-BE(2)-C neuroblastoma cells were taken and the protein levels for HDAC8 and the acetylation of its substrate SMC3 were determined (Figure 6). As a control for HDAC6, we also assessed acetylation levels of α-tubulin. […]. A clear dose-dependent degradation of HDAC8 by PROTAC CRBN_1e was observed (Figure 6C). After 48 h, the HDAC8 protein level was back to baseline, presumably due to de novo protein synthesis. […]. Western blot analysis was performed as described previously (Kolbinger et al.). […]
as §3, with “(B) SK-N-BE(2)-C neuroblastoma cells were treated for 6 h with indicated concentrations of HyT_1p, CRBN_1b and HyT_1m.” left out, “Total GAPDH protein levels served as a loading control (LC). * unspecific bands obtained through reprobing of the membrane.” left out

HDAC8 [4] = test system: HDAC8; design: method as in PMID 35311871; conditions: Jurkat cells; cited from earlier work

| SMILES | IC50 (HDAC8 [1]; Table 1, PROTACs) [nM] | IC50 (HDAC6) [nM] | HDAC8 degradation (HDAC8 [2]) | SI (HDAC6/HDAC8) (HDAC8 [1]) | Effect in cell proliferation assay (viable cell count) (IMR-32 cells) | IC50 (HDAC8 [3]) [nM] | other results |
| --- | --- | --- | --- | --- | --- | --- | --- |
| COc1ccc(C(=O)NO)cc1NC(=O)c1ccc(NC(=O)CCCCCNC(=O)CC23CC4CC(CC(C4)C2)C3)cc1 [HyT_1m] | 570 ± 110 | 250 ± 80 | failed to degrade HDAC8 |  | less significant |  | inhibition at 1 µM (HDAC1; 1 µM, read-out: HDAC1 % inhib. at given conc.): 47.7%; inhibition at 10 µM (HDAC1; 10 µM, read-out: HDAC1 % inhib. at given conc.): 81.9% |
| O=C1CCC(N2C(=O)c3cccc(NCCCCCCCCCCCNC(=O)c4cccc(SCc5cn(-c6cccc(C(=O)NO)c6)nn5)c4)c3C2=O)C(=O)N1 (stereo not drawn) [XIII] |  |  |  |  |  |  | HDAC8 degradation (HDAC8 [4]): efficient degradation of HDAC8 enzyme |
| COc1ccc(C(=O)NO)cc1NC(=O)c1ccc(NC(=O)CCCCCCC(=O)N[C@H](C(=O)N2C[C@H](O)C[C@H]2C(=O)NCc2ccc(-c3scnc3C)cc2)C(C)(C)C)cc1 [VHL_1k] | 110 ± 10 | 310 ± 10 |  | 3 | less significant |  | IC50 (HDAC1; Table 1, PROTACs, read-out: HDAC1 IC50): > 20000 nM |
| O=C(NO)c1cccc(NCc2ccccc2)c1 [2d] |  |  |  |  |  | 140 ± 10 |  |

Now from value to compound, other results behind:

| IC50 (HDAC8 [1]; Table 1, PROTACs) [nM] | IC50 (HDAC6) [nM] | HDAC8 degradation (HDAC8 [2]) | SI (HDAC6/HDAC8) (HDAC8 [1]) | SMILES | Effect in cell proliferation assay (viable cell count) (IMR-32 cells) | IC50 (HDAC8 [3]) [nM] | other results |
| --- | --- | --- | --- | --- | --- | --- | --- |
|  |  |  | 28 | COc1ccc(C(=O)NO)cc1NC(=O)c1ccccc1 [2b] |  | 90 ± 20 |  |
|  |  | no HDAC8 degradation |  | Cc1ccc(C(=O)NO)cc1NCc1ccc(OCc2cn(Cc3ccccc3)nn2)cc1 [33b] |  |  | Hyperacetylation of HDAC8 substrate SMC3 (acetylated SMC3): hyperacetylation of SMC3; IC50 (HDAC8 [1]; negative control without pomalidomide warhead): 698 ± 41 nM |

Source: PMC9322761, “Design, Synthesis and Biological Characterization of Histone Deacetylase 8 (HDAC8) Proteolysis Targeting Chimeras (PROTACs) with Anti-Neuroblastoma Activity” (International Journal of Molecular Sciences, 2022)
